Experimental data published in patent publication US20230295201A1 (Gilead Sciences, Inc., priority 2020, published 2023).
Where two headings read alike, the source gives them in different places.

How the values were obtained:
Format in all cases: cell-based
RSV strain A2 = experiment: RSV HEp-2 EC50 (infectious cytopathic cell protection assay); conditions: read-out: RSV HEp-2 EC50
Method in brief: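 HEp-2 cells mixed with titered RSV A2 at 50,000 cells/ml were added to plates holding 3-fold serial compound dilutions in DMSO, then incubated 4 days at 37° C. Cytoprotection was read as cell viability by CellTiter-Glo luminescence and converted to percent inhibition against 0% and 100% inhibition controls.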

RSV A2 = experiment: RSV NHBE EC50 (RSV A2 antiviral assay in normal human bronchial epithelial cells); conditions: read-out: RSV NHBE EC50
DENV2 replicon = experiment: DENV-2 Huh-7 Rep EC50 (replicon luminescence); conditions: read-out: DENV-2 Huh-7 Rep EC50
Method in brief: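 Huh-7 cells carrying a DENV2 replicon, 5,000 cells/well, were incubated with dosed compounds for 48 h at 37° C. EnduRen live-cell substrate was added 1.5 h before luminescence reading. EC50 came from dose-response against DMSO-only wells.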

HRV16 = HRV16 HELA EC50 (cytopathic effect in H1-HeLa cells)
Method in brief: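 H1-HeLa cells seeded one day before, given 3-fold serial compound dilutions in triplicate just prior to infection with pre-titrated virus. Incubated 96 h at 33 °C/5% CO2; protection from cytopathic effect read as viability by CellTiter-Glo luminescence, normalised to infected untreated (0%) and uninfected (100%) controls.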

[1] = human respiratory syncytial virus, HEp-2, 96 h, HEp-2 cells, RSV A2, 4 days
[2] = human respiratory syncytial virus, NHBE, 96 h, NHBE cells, RSV A2, 4 days
[3] = Dengue virus, DENV2, Huh-7, 48 h, Huh-7 replicon cells, 48 hours
[4] = 96 h, H1-HeLa cells, 33° C., read-out: HRV16 HELA EC50
[5] = Dengue virus, DENV2, Huh-7, 48 h
[6] = H1-HeLa cells, 96 h, 33° C.; read-out: HRV16 HELA EC50

SMILES	EC50 (RSV strain A2; [1])	EC50 (RSV A2; [2])	EC50 (DENV2 replicon; [3])	EC50 (HRV16; [4])	other results
CCOC(=O)[C@H](CCCCNC(C)=O)NP(=O)(OC[C@@]1(C#N)O[C@@H](c2ccc3c(N)ncnn23)[C@H](O)[C@@H]1O)Oc1ccccc1 (mixture of isomers) [Example 85, (2S)-ethyl 6-acetamido-2-(((((2R,3S,4R,5S)-5-(4-aminopyrrolo[2,1-f][1,2,4]triazin-7-yl)-2-cyano-3,4-dihydroxytetrahydrofuran-2-yl)methoxy)(phenoxy)phosphoryl)amino)hexanoate]	> 46.7 µM	> 5 µM	> 50 µM	> 50 µM	–
C=CCO[C@H](COCCCCCCCCCCCCCCCCCC)COP(=O)(O)OC[C@@]1(C#N)O[C@@H](c2ccc3c(N)ncnn23)[C@H](O)[C@@H]1O [Example 167, (R)-2-(allyloxy)-3-(octadecyloxy)propyl (((2R,3S,4R,5S)-5-(4-aminopyrrolo[2,1-f][1,2,4]triazin-7-yl)-2-cyano-3,4-dihydroxytetrahydrofuran-2-yl)methyl) hydrogen phosphate]	–	–	–	–	EC50 (RSV strain A2; human respiratory syncytial virus, 96 h, HEp-2 cells, RSV A2, 4 days): 0.647 µM; EC50 (RSV A2; human respiratory syncytial virus, 96 h, NHBE cells, RSV A2, 4 days): 0.359 µM; EC50 (DENV2 replicon; [5]): > 100 µM; EC50 (HRV16; [6]): 12 µM
C[C@H](NP(=O)(OC[C@@]1(C#N)O[C@@H](c2ccc3c(N)ncnn23)[C@H](O)[C@@H]1O)Oc1ccccc1)C(=O)OC1CCC1 (stereo partly drawn) [Example 118, (2S)-cyclobutyl 2-(((((2R,3S,4R,5S)-5-(4-aminopyrrolo[2,1-f][1,2,4]triazin-7-yl)-2-cyano-3,4-dihydroxytetrahydrofuran-2-yl)methoxy)(phenoxy)phosphoryl)amino)propanoate]	0.214 µM	0.316 µM	27 µM	0.424 µM	–
C[C@H](NP(=O)(OC[C@@]1(C#N)O[C@@H](c2ccc3c(N)ncnn23)[C@H](O)[C@@H]1O)Oc1ccccc1)C(=O)OC1CCCC(C)(C)C1 (mixture of isomers) [Example 154, 3,3-dimethylcyclohexyl ((((2R,3S,4R,5S)-5-(4-aminopyrrolo[2,1-f][1,2,4]triazin-7-yl)-2-cyano-3,4-dihydroxytetrahydrofuran-2-yl)methoxy)(phenoxy)phosphoryl)-L-alaninate]	2.7 µM	0.311 µM	50.7 µM	1.95 µM	–
C[C@H](NP(=O)(OC[C@@]1(C#N)O[C@@H](c2ccc3c(N)ncnn23)[C@H](O)[C@@H]1O)Oc1ccccc1)C(=O)OCC1CCOCC1 (stereo partly drawn) [Example 20, (tetrahydro-2H-pyran-4-yl)methyl ((((2R,3S,4R,5S)-5-(4-aminopyrrolo[2,1-f][1,2,4]triazin-7-yl)-2-cyano-3,4-dihydroxytetrahydrofuran-2-yl)methoxy)(phenoxy)phosphoryl)-L-alaninate]	0.877 µM	2.23 µM	> 50 µM	4.88 µM	–
C[C@H](N)C(=O)OCCNP(=O)(OC[C@@]1(C#N)O[C@@H](c2ccc3c(N)ncnn23)[C@H](O)[C@@H]1O)Oc1ccccc1 (stereo partly drawn) [Example 133, 2-(((((2R,3S,4R,5S)-5-(4-aminopyrrolo[2,1-f][1,2,4]triazin-7-yl)-2-cyano-3,4-dihydroxytetrahydrofuran-2-yl)methoxy)(phenoxy)phosphoryl)amino)ethyl L-alaninate]	4.72 µM	> 5 µM	> 50 µM	16.5 µM	–
C[C@H](NP(=O)(OC[C@@]1(C#N)O[C@@H](c2ccc3c(N)ncnn23)[C@H](O)[C@@H]1O)Oc1ccccc1)C(=O)O[C@@H](C)C(N)=O (some centres unmarked) [Example 160]	–	–	–	–	EC50 (RSV strain A2; HEp-2 cells, RSV A2, 4 days): 7.3 µM; EC50 (RSV A2; NHBE cells, RSV A2, 4 days): > 5 µM; EC50 (DENV2 replicon; Huh-7 replicon cells, 48 hours): > 50 µM; EC50 (HRV16; [6]): 29.1 µM
CCOC(=O)[C@H](CC)NP(=O)(OC[C@@]1(C#N)O[C@@H](c2ccc3c(N)ncnn23)[C@H](O)[C@@H]1O)Oc1ccccc1 (stereo partly drawn) [Example 97, (2S)-ethyl 2-(((((2R,3S,4R,5S)-5-(4-aminopyrrolo[2,1-f][1,2,4]triazin-7-yl)-2-cyano-3,4-dihydroxytetrahydrofuran-2-yl)methoxy)(phenoxy)phosphoryl)amino)butanoate]	0.537 µM	1.37 µM	> 100 µM	4.42 µM	–
CC(C)OC(=O)[C@H](C)N[P@](=O)(OC[C@@]1(C#N)O[C@@H](c2ccc3c(N)ncnn23)[C@@H]2OC(=O)O[C@@H]21)Oc1ccccc1 [Example 236, isopropyl ((S)-(((3aS,4R,6S,6aS)-6-(4-aminopyrrolo[2,1-f][1,2,4]triazin-7-yl)-4-cyano-2-oxotetrahydrofuro[3,4-d][1,3]dioxol-4-yl)methoxy) (phenoxy)phosphoryl)-L-alaninate]	0.189 µM	0.949 µM	17.9 µM	0.741 µM	–
C[C@H](N[P@](=O)(OC[C@@]1(C#N)O[C@@H](c2ccc3c(N)ncnn23)[C@@H]2OC(=O)O[C@@H]21)Oc1ccccc1)C(=O)OC1CCCCC1 [Example 168, cyclohexyl ((S)-(((3aS,4R,6S,6aS)-6-(4-aminopyrrolo[2,1-f][1,2,4]triazin-7-yl)-4-cyano-2-oxotetrahydrofuro[3,4-d][1,3]dioxol-4-yl)methoxy)(phenoxy)phosphoryl)-L-alaninate]	0.053 µM	0.103 µM	4.67 µM	0.16 µM	–
CCOC(=O)[C@H](Cc1ccccc1)NP(=O)(OC[C@@]1(C#N)O[C@@H](c2ccc3c(N)ncnn23)[C@H](O)[C@@H]1O)Oc1ccccc1 (stereo partly drawn) [Example 3, (2S)-ethyl 2-(((((2R,3S,4R,5S)-5-(4-aminopyrrolo[2,1-f][1,2,4]triazin-7-yl)-2-cyano-3,4-dihydroxytetrahydrofuran-2-yl)methoxy)(phenoxy)phosphoryl)amino)-3-phenylpropanoate]	4.09 µM	1.69 µM	> 100 µM	8.96 µM	–
CC(C)(C)C(=O)OCCNP(=O)(NCCOC(=O)C(C)(C)C)OC[C@@]1(C#N)O[C@@H](c2ccc3c(N)ncnn23)[C@H](O)[C@@H]1O [Example 208]	> 32.8 µM	> 4.22 µM	–	> 50 µM	EC50 (DENV2 replicon; [5]): > 50 µM
CCCCOC(=O)C1CCCN1P(=O)(OC[C@@]1(C#N)O[C@@H](c2ccc3c(N)ncnn23)[C@H](O)[C@@H]1O)Oc1ccccc1 (stereo in doubt) [Example 124, (2R)-butyl 1-((((2R,3S,4R,5S)-5-(4-aminopyrrolo[2,1-f][1,2,4]triazin-7-yl)-2-cyano-3,4-dihydroxytetrahydrofuran-2-yl)methoxy)(phenoxy)phosphoryl)pyrrolidine-2-carboxylate]	–	–	–	–	EC50 (RSV strain A2; human respiratory syncytial virus, HEp-2, 96 h): > 100 µM; EC50 (RSV A2; human respiratory syncytial virus, NHBE, 96 h): > 5 µM; EC50 (DENV2 replicon; [5]): > 100 µM; EC50 (HRV16; 96 h, read-out: HRV16 HELA EC50): > 86.4 µM
C[C@H](NP(=O)(OC[C@@]1(C#N)O[C@@H](c2ccc3c(N)ncnn23)[C@H](O)[C@@H]1O)Oc1ccccc1)C(=O)O[C@H]1CC[C@H](C(C)(C)C)CC1 (stereo partly drawn) [Example 21, trans-4-(tert-butyl)cyclohexyl ((((2R,3S,4R,5S)-5-(4-aminopyrrolo[2,1-f][1,2,4]triazin-7-yl)-2-cyano-3,4-dihydroxytetrahydrofuran-2-yl)methoxy)(phenoxy)phosphoryl)-L-alaninate]	0.079 µM	0.027 µM	11 µM	0.23 µM	–
CC(C)COC(=O)OCCNP(=O)(OC[C@@]1(C#N)O[C@@H](c2ccc3c(N)ncnn23)[C@H](O)[C@@H]1O)Oc1ccccc1 (stereo partly drawn) [Example 177, 2-(((((2R,3S,4R,5S)-5-(4-aminopyrrolo[2,1-f][1,2,4]triazin-7-yl)-2-cyano-3,4-dihydroxytetrahydrofuran-2-yl)methoxy)(phenoxy)phosphoryl)amino)ethyl isobutyl carbonate]	0.104 µM	1.56 µM	> 50 µM	1.16 µM	–
C[C@H](NP(=O)(OC[C@@]1(C#N)O[C@@H](c2ccc3c(N)ncnn23)[C@H](O)[C@@H]1O)Oc1ccccc1)C(=O)OC1CCCCCC1 (stereo partly drawn) [Example 134, (2S)-cycloheptyl 2-(((((2R,3S,4R,5S)-5-(4-aminopyrrolo[2,1-f][1,2,4]triazin-7-yl)-2-cyano-3,4-dihydroxytetrahydrofuran-2-yl)methoxy)(phenoxy)phosphoryl)amino)propanoate]	0.334 µM	0.052 µM	24.7 µM	0.247 µM	–
CCC(CC)COC(=O)C1(NP(=O)(OC[C@@]2(C#N)O[C@@H](c3ccc4c(N)ncnn34)[C@H](O)[C@@H]2O)Oc2ccccc2)CCC1 (stereo partly drawn) [Example 100, 2-ethylbutyl 1-(((((2R,3S,4R,5S)-5-(4-aminopyrrolo[2,1-f][1,2,4]triazin-7-yl)-2-cyano-3,4-dihydroxytetrahydrofuran-2-yl)methoxy)(phenoxy)phosphoryl)amino)cyclobutanecarboxylate]	> 5.6 µM	3.6 µM	> 50 µM	18 µM	–
